Reference: ChEMBL document CHEMBL1921693, “Efficient synthesis and in vitro antitubercular activity of 1,2,3-triazoles as inhibitors of Mycobacterium tuberculosis” (2011)
In brackets after ≈: the same amount, converted by molar mass.

Assays:
[1] = system: Mycobacterium tuberculosis; experiment: Antituberculosis activity against Mycobacterium tuberculosis H37Rv by agar dilution method; format: functional
[2] = system: Mycobacterium tuberculosis; experiment: Ratio of ethambutol MIC to compound MIC for Mycobacterium tuberculosis H37Rv; format: functional

SMILES | MIC [1] | Ratio [2]
CCOC(=O)c1nnn(Cc2ccccc2)c1C(=O)OCC | 12.5 µg/mL (≈ 41.2 µM) | –
CCOC(=O)c1nnn(CC(=O)c2ccccc2)c1C(=O)OCC | 3.13 µg/mL (≈ 9.45 µM) | –
CCOC(=O)c1nnn(CC(=O)c2ccc(OC)cc2)c1C(=O)OCC | 6.25 µg/mL (≈ 17.3 µM) | –
CCOC(=O)c1nnn(CC(=O)c2ccc(Br)cc2)c1C(=O)OCC | 1.56 µg/mL (≈ 3.8 µM) | 2.08
CCOC(=O)c1nnn(CC(=O)c2ccc(Cl)cc2)c1C(=O)OCC | 3.13 µg/mL (≈ 8.56 µM) | –
CCOC(=O)c1nnn(CC(=O)OC)c1C(=O)OCC | > 25 µg/mL | –
CCOC(=O)Cn1nnc(C(=O)OCC)c1C(=O)OCC | > 25 µg/mL | –
COC(=O)c1nnn(Cc2ccccc2)c1C(=O)OC | 25 µg/mL (≈ 90.8 µM) | –
COC(=O)c1nnn(CC(=O)c2ccccc2)c1C(=O)OC | 12.5 µg/mL (≈ 41.2 µM) | –
COC(=O)c1nnn(CC(=O)c2ccc(OC)cc2)c1C(=O)OC | 12.5 µg/mL (≈ 37.5 µM) | –
COC(=O)c1nnn(CC(=O)c2ccc(Br)cc2)c1C(=O)OC | 3.13 µg/mL (≈ 8.19 µM) | –
COC(=O)c1nnn(CC(=O)c2ccc(Cl)cc2)c1C(=O)OC | 6.25 µg/mL (≈ 18.5 µM) | –
COC(=O)Cn1nnc(C(=O)OC)c1C(=O)OC | > 25 µg/mL | –
CCOC(=O)Cn1nnc(C(=O)OC)c1C(=O)OC | > 25 µg/mL | –
CC[C@@H](CO)NCCN[C@@H](CC)CO [ETHAMBUTOL] | 3.25 µg/mL (≈ 15.9 µM) | –
NNC(=O)c1ccncc1 [ISONIAZID] | 0.75 µg/mL (≈ 5.47 µM) | –
